Earlier results in patent publication US20140050728A1, “METHODS AND COMPOSITIONS FOR INHIBITING CYCLOPHILIN D FOR THE TREATMENT AND PREVENTION OF OBESITY AND KIDNEY INDICATIONS” (BOARD OF REGENTS OF THE UNIVERSITY OF NEBRASKA, priority 2011, published 2014).

Details: for weight loss in clinical trials: none of the trials achieved the NIH effectiveness threshold

Compound	weight loss in clinical trials	cardiovascular risk associated with use (banned in Europe, cautioned by U.S. FDA)
CCCCCCCCCCC[C@@H](C[C@@H]1OC(=O)[C@H]1CCCCCC)OC(=O)[C@H](CC(C)C)NC=O [orlistat]	modest weight loss	–
CC(C)CC(N(C)C)C1(c2ccc(Cl)cc2)CCC1 (stereo not drawn) [sibutramine]	modest weight loss	increased cardiovascular risk
